Assay [1] has as its system reinforcing effects of methamphetamine. To be noted: rat self-administration model; Munzar et al., 2004; cited from earlier work.
The test system of assay [2] is cocaine craving. The assay is described as follows: Extinction phase: cocaine craving (lever pressing with drug no longer available). The format is in vivo, rat. The source says: II. Extinction Phase: In this phase, the drug ceases to be available to the rats. During the extinction session, the animal learns, suddenly, that the drug can no longer be obtained by pressing the lever, which directs the rat toward an initial impulse of drug seeking. During the extinction session, one estimates the degree of the irrepressible desire of the rat for the drug (craving). After repeated extinction sessions, animals learn to reduce lever pressing and are ready for relapse testing.
Training was conducted in Skinner cages. Rats were trained to tap a lever to obtain saccharose. […] Once the training to obtain saccharose was complete, the rats had access to food ad libitum during the rest of the procedure. An intravenous catheter was subsequently implanted in the jugular vein. The catheter passed underneath the skin to reach the shoulder of the animal, where it was secured with a surgical gauze.
After 3-4 days of recovery, the animals were subjected, in the Skinner cages, to daily sessions of intravenous self-administration of 0.5 mg/kg doses of cocaine each time that they pressed an active lever. […] When this second lever was pressed by the animal, no drug was administered. The self-administration sessions lasted for 2 hours a day, 5 days a week, for at least six weeks.
The third self-administration protocol required the animals to press the lever five times to obtain the cocaine reinforcement.
Rats that succeeded in learning to self-administer the drug according to all three protocols described above were selected to test out the efficiency of the treatment with H3 histaminergic agonists in the extinction and relapse phases.
Drug craving, in this particular case cocaine craving, associated with the unexpected commencement of the extinction phase was studied once the animals had been self-administering the drug daily for at least six weeks.
The experiments began with the self-administration of cocaine for one hour. After this initial self-administration, the rats were divided into two groups. […]

The subject of assay [3] is cocaine self-administration. The assay is described as follows: Same protocol with lever pressing rewarded with drug during the second hour (resumption of self-administration). Format: in vivo, rat. The procedure: In order to differentiate the drug seeking from the reward phenomenon, the same protocol as described above was used, with the proviso that the pressing of the lever was rewarded with drug during the second hour. In the control experiments, when the rats were treated with saline solution, a relatively stable pressing of the lever over the course of time was observed (FIG. 3).
These same rats, days afterwards, were subjected in random order to treatment with saline solution or imetit in doses of 10 mg/kg. After these treatments, the rats recovered stability by means of three sessions of self-administration of drug. […] This decrease was significant for the first 40 minutes of the self-administration period, as compared to the control rats that were pretreated with a saline solution. Thus, over the course of time, the desire for the drug reappeared.

The test system of assay [4] is reinforcement produced by cocaine. The assay is described as follows: Reinforcement phase: cocaine self-administration dose/response. To be noted: rats. The format is in vivo, rat.
Assay [5] relates to relapse into cocaine seeking. The assay is described as follows: Relapse phase: rehabilitation test, relapse induced by a single dose of cocaine. The format is in vivo, rat. As to conditions: rats. The source says:
III. Relapse Phase: The relapse phase is studied by using a rehabilitation test. In this phase, the desire of the rats for the drug is again induced by the administration of a single dose of drug. At this instant, the rat again feels the desire to obtain the drug, and so it again begins to press on the lever to obtain the drug, but the drug is not available to the animal.
The behavior of the rats was also studied during the relapse phase, after the animals had gone through the extinction phase. In the extinction phase, the animals received no reward (dose of cocaine) when they pressed the lever. After a minimum of six extinction sessions, lasting 2 hours each session, carried out on consecutive days, the lever-pressing behavior of the rats diminished at least 20 times in comparison to the start of the extinction sessions.
When the number of times that the rats pressed the lever decreased, the animals were subjected to 4 hour rehabilitation sessions (i.e., relapse sessions). These rehabilitation sessions consisted initially of extinction sessions of 3 hours, followed by the automatic release, by an injection, of a saline solution or different doses of cocaine. During the fourth hour, the behavior of the animals was studied in regard to the number of times that they pressed the lever after the administration of the different doses of cocaine (0 mg/kg, 0.5 mg/kg and 2 mg/kg). The number of times that the lever was pressed increased in proportion to the dose of cocaine administered (cocaine at 0.5 mg/kg or 2 mg/kg administered intravenously, or saline in controls) (FIG. 8). However, this increase in the number of times that the animals pressed the lever was not rewarded with the administration of more cocaine. The number of times that the rats pressed the lever was indicative of the rat's need to find the drug. Even so, the pressing of the lever was not rewarded with more cocaine, which differentiates this stage from that corresponding to self-administration. […]

“Also recorded” adds a separate entry of the source.

Take `NC(=NCc1ccc(Cl)cc1)SCCCc1cnc[nH]1` [clobenpropit]: the “reinforcing effects of methamphetamine” value in assay [1] is reported as “potentiate the reinforcing effects”.

Turning to `N=C(N)SCCc1cnc[nH]1` [imetit], the “tapping of the lever in the first 20 minutes of extinction” value in assay [2] (imetit 3 mg/kg i.v. single dose, vs control rats) was “did not cause a significant reduction”. Also, the “latency (time until the rats pressed the lever for the first time) at start of extinction” value in assay [2] (imetit 10 mg/kg i.v. single dose, vs control) was “significantly increased; also recorded: increase in latency”. In addition, the “impulsiveness in tapping the lever to obtain reward in the first 20 minutes of extinction” value in assay [2] (imetit 10 mg/kg i.v. single dose, vs control rats) is recorded as “significantly diminished”. Moreover, in assay [3] (imetit 10 mg/kg i.v. pretreatment, vs control, rats), the “latency (time until first lever press) on resumption of self-administration” value was “significantly increased”. Also, the “decrease in number of times the rats tapped the lever during the start of the self-administration phase” value in assay [3] (imetit 10 mg/kg pretreatment, vs saline) is recorded as “approximately 50%”. The “period of the self-administration phase over which the decrease in lever tapping was significant” value in assay [3] (imetit 10 mg/kg pretreatment, vs saline, rats) worked out at 40 min. Further, the “tendency to seek cocaine (self-injections in 2 hours)” value in assay [4] (imetit 3 mg/kg single dose one hour before reinforcement, even at 0.03 mg/kg cocaine) is on record as “diminished the tendency to seek cocaine; also recorded: self-administer less cocaine”. Moreover, the “lever pressing after relapse induced by a single dose of cocaine” value in assay [5] (imetit 3 mg/kg one hour before, cocaine 0.5 mg/kg, vs saline) is “caused a decrease in the pressing on the lever; also recorded: diminished significantly”.

Take `S=C(NC1CCCCC1)N1CCC(c2cnc[nH]2)CC1` [thioperamide]: the “reinforcement produced by cocaine (self-injections in 2 hours)” value in assay [4] (thioperamide 3 mg/kg s.c. one hour before, cocaine 0-1.0 mg/kg per injection) is “no significant increase”. In addition, the “lever pressing after relapse induced by a reminder dose of cocaine” value in assay [5] (thioperamide 3 mg/kg s.c. or 6 mg/kg, one hour before, cocaine 0.5 or 2 mg/kg) was “did not potentiate the rehabilitation; also recorded: does not produce a significant decline”. In assay [1], the “reinforcing effects of methamphetamine” value was “potentiate the reinforcing effects”.

The values are drawn from US20110130425A1, “Use of H3 Histaminergic Agonists for the Treatment of Addiction to Drugs of Abuse” (priority 2009, published 2011).
